Columns and labels:
matrix-metalloproteases = details: cited from earlier work
p38δ = biological target: T1, p38δ (Homo sapiens, UniProt O15264); details: reported (ref. 27); cited from earlier work
T1 sequence (O15264 1-365): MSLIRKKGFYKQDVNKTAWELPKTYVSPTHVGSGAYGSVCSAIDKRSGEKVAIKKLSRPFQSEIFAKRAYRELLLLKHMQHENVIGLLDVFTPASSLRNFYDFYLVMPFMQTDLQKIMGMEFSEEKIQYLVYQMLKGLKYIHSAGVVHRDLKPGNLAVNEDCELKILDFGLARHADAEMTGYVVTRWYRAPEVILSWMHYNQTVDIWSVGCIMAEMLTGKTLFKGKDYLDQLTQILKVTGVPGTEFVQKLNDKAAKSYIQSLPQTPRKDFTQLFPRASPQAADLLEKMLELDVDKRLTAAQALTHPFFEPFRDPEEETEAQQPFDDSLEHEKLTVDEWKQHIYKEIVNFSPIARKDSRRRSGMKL

UM-SCC-1 cells [1] = test: Cell growth curves (MTT-vital stain); assay type: cell-based, human; details: 5 μM and 10 μM, up to 5 days, medium with 10% FBS
p38γ = biological target: T2, p38γ (Homo sapiens, UniProt P53778); details: reported (ref. 27); cited from earlier work
T2 sequence (P53778 1-367): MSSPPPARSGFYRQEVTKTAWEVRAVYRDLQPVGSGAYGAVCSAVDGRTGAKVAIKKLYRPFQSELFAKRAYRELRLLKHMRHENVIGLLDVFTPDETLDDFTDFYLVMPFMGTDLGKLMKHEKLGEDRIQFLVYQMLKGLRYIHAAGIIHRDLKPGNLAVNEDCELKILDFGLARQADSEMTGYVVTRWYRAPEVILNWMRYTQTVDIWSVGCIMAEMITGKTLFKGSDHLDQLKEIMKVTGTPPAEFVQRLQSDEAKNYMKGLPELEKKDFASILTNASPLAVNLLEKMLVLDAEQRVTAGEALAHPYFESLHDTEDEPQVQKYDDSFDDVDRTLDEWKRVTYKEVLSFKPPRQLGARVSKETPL

UM-SCC-1 cells [2] = test: In vitro invasion assay on Matrigel coated filters; assay type: cell-based, human; details: 60 hours, serum-free medium, +/− S.E., 3 dishes
Procedure: Invasion assays were performed as described (20, 25) using filters with 8 μm pore size coated with ⅓ diluted Matrigel®/SFM (Becton Dickinson, Bedford, Mass.). […] For experiments utilizing a mouse monoclonal MMP-9 Antibody (#IM09L, Oncogene Research Products, Cambridge, Mass.) (0.5, 1, and 10 μg/ml) cells were either plated out in SFM plus antibody of SFM plus similar amounts of preimmune serum. The amount of invasion was determined on the basis of the MTT-activity on the lower side of the filter as a percentage of the total activity in the chamber.
The concentration of the carrier (DMSO) was maintained at 0.1%. […] The data are typical of triplicate experiments.
Invasion is expressed as the percentage of cells invading through Matrigel®. Invasion upon treatment with varying concentrations of the antibody recognizing the active and latent form of MMP-9 or preimmune serum provided by the manufacturer is expressed as average percentage+/−S.E. and represents 3 dishes in each group. The data are typical of triplicate experiments.

UMSCC-1 = details: after treatment with phorbol myristate acetate (PMA); cited from earlier work
MMP-9 = details: after treatment with phorbol myristate acetate (PMA); cited from earlier work

SMILES	IC50 value (matrix-metalloproteases)	inhibition of p38δ (p38δ)	effect on cell growth (UM-SCC-1 cells [1])	inhibition of p38γ (p38γ)	reduction of in-vitro invasion (UM-SCC-1 cells [2]; 5 μM)	reduction of in-vitro invasion (UM-SCC-1 cells [2]; 10 μM)	inhibition of enhanced in-vitro invasiveness (UMSCC-1)	inhibition of enhanced MMP-9 secretion (MMP-9)
CNC(=O)[C@@H](NC(=O)[C@H](CC(C)C)[C@H](O)C(=O)NO)C(C)(C)C [marimastat]	micromolar range	–	–	–	–	–	–	–
C[S+]([O-])c1ccc(-c2nc(-c3ccncc3)c(-c3ccc(F)cc3)[nH]2)cc1 (centres unmarked) [SB 203580]	–	not inhibited	does not affect cell growth	not inhibited	43+/−9%	69+/−8%	could be inhibited	could be inhibited
